Assay [1] relates to rpL34 promoter. To be noted: previous promoter analyses (Dai et al. 1996); on top of mechanical wounding; cited from earlier work.
Assay [2] concerns rpL34 promoter. In words: Response of rpL34 promoter constructs to wounding and plant hormones in leaf discs of transgenic tobacco. Format: in vivo, Nicotiana tabacum. As to conditions: leaf discs of plants with −1500, m178 or Δ147; 1 μM 2,4-D or 5 μM BA in MS medium, 24 hr; versus wounding alone. The protocol:
Fresh young leaves of independent transgenic tobacco were ground in lysis buffer (50 mM sodium phosphate, pH 7.0. 10 mM EDTA, 0.1% TritonX-100, 0.1% sarkosyl and 10 mM DTT). Tobacco protoplast protein was extracted in the same buffer by sonication on ice twice, 5 seconds each time. […] Approximately 5-10 μg of protein was incubated in the presence of 1 mM 4-methylumbelliferyl β-D-glucuronide in 100 μl of lysis buffer at 37 C. Samples from each reaction were taken at 0, 15, and 30 min intervals and the enzyme reaction was quenched in 0.2 M sodium carbonate (Na2CO3). The flurometer was calibrated with 100, 200, 300, and 400 nM 4-methylumbelliferon in 0.2M sodium carbonate.
Kanamycin resistant T1 seedlings, each containing a unique internally deleted rpL34 promoter, were selected and grown to maturity. Six leaf discs excised from the fourth leaf of each plant by paper punch were randomly pooled and incubated in MS medium with 5 μM BA, 1 μM 2,4-D or no plant hormone (wounding treatment) for 24 hr at room temperature. […] The leaf discs ground immediately after excision in protein extraction buffer served as non-wounded tobacco controls.

Consider `O=C(O)COc1ccc(Cl)cc1Cl` [2,4-D, 2,4-dichlorophenoxyacetic acid], for which the rpL34 promoter activity result with rpL34 promoter [1] is recorded as “further enhanced”. Besides, the “induced GUS activity” value with rpL34 promoter [2] is recorded as “induced higher GUS activity than wounding alone”.
As to `c1ccc(CNc2ncnc3nc[nH]c23)cc1` [BA, benzyladenine], the rpL34 promoter activity result with rpL34 promoter [1] is reported as “further enhanced”. Moreover, the “induced GUS activity” value in the assay with rpL34 promoter [2] is “induced higher GUS activity than wounding alone”.

The record behind these values is patent US6355864B1, “Versatile rpL34 promoter elements and use thereof” (Battelle Memorial Institute, priority 1999, dated 2002).
